Results reported in patent US20240173333A1, “Treating Alagille Syndrome (ALGS)” (priority 2022, published 2024).
Marks after values point to notes of the source that are not given here.

How the values were obtained:
[1] = tested on: patients with Alagille syndrome (ALGS); test: ASSERT pruritus responders: TEAEs
From the text: (§1) Treatment with concomitant medications for pruritus was permitted provided the patient was on a stable dosage for ≥4 weeks prior to enrollment that was maintained throughout the study.
(§2) Pruritus responders were defined as patients having a ≥1-point decrease in ObsRO scratching score from baseline to weeks 21-24).

[2] = tested on: patients with Alagille syndrome (ALGS); test: ASSERT pruritus responders: serum bile acids
From the text: as §1, §2

[3] = tested on: patients with Alagille syndrome (ALGS); test: ASSERT phase 3 trial: ObsRO scratching score and pruritus response; assay type: in vivo, human; conditions: 120 μg/kg/day
Protocol: Odevixibat is an orally administered, potent, luminally restricted, selective IBAT inhibitor in development to treat cholestatic liver diseases. In this phase 3, double-blind, randomized, 24-week trial (ASSERT), the efficacy and safety of odevixibat versus placebo was evaluated in patients with Alagille Syndrome (ALGS). The efficacy of odevixibat in patients with ALGS was evaluated in a 24-week, randomized, double-blind, placebo-controlled trial conducted in 52 patients with a confirmed diagnosis of ALGS (NCT04674761; ASSERT). Patients were randomized 2:1 to receive odevixibat 120 μg/kg/day or placebo.
The study consisted of a screening phase and parallel-design treatment period. Two screening visits occurred: the first took place during days −56 to −21 prior to the first dose of study drug and the second occurred during days −49 to ˜14. On day 0, all eligible patients were randomized 2:1 to oral, 120 μg/kg/day odevixibat or once-daily placebo. Eligibility for randomization was determined using pruritus or scratching reports from observer reported outcome (ObsRO)/patient reported outcome (PRO) data for evaluation of itching (PRO), scratching (ObsRO), and sleep disturbance (PRO and ObsRO) in the 14 days before Study Day 1, clinical genetic confirmation of diagnosis, and the liver biochemistry evaluations from the previous screening visits. After written informed consent was obtained, an Interactive Web Response System (IWRS) was used to assign patients to treatment. The randomization codes were computer generated by Albireo or a qualified randomization vendor.
A single primary endpoint was evaluated. The primary endpoint in this study was the change from baseline in scratching to Month 6 (Weeks 21 to 24) as measured by the observer-reported outcome (ObsRO) instrument.
Itching, Scratching, and Sleep Parameters. Itching, observed scratching, and sleep disturbance were recorded twice each day via eDiary. Patients and/or caregivers were instructed to complete the eDiary every day in the morning after the patient woke and in the evening just before the patient went to sleep throughout the study. The eDiary included ObsRO and PRO items. The PRO items assessed severity of itch, aspects of sleep disturbance (morning diary only), and tiredness. The ObsRO items assessed severity of observed scratching, aspects of observed sleep disturbance (morning diary only), and signs of tiredness (evening diary only). […]
Statistical Analyses. […] After a minimum of 18 patients had completed the Week 16 visit, the pooled SD of change from baseline to Month 4 (Weeks 13-16 assessments) and available change from baseline to Month 6 (Weeks 21-24 assessments) in average monthly scratching score was calculated by an independent statistician to assess the need for sample size re-estimation. […]

[4] = tested on: patients with Alagille syndrome (ALGS); test: ASSERT pruritus responders: caregiver-reported PedsQL
From the text: as §1, §2

[5] = tested on: patients with Alagille syndrome (ALGS); test: ASSERT: Clinician Xanthoma Scale; assay type: in vivo, human
Protocol: Clinical Assessment of Xanthoma. Changes in xanthoma as assessed by the Clinician Xanthoma Scale were measured at randomization (Study Day 1), Week 12, and Week 24/EOT visits. The clinician's assessment of the participant's xanthomatosis was focused on the number of lesions present and the degree to which the participant's lesions interfered or limited activities.

[6] = tested on: patients with Alagille syndrome (ALGS); test: ASSERT: global impression of change (CGIC, CaGIC, PGIC) and exit survey; assay type: in vivo, human; conditions: post hoc analysis; completion of study

CCCCC1(CCCC)CN(c2ccccc2)c2cc(SC)c(OCC(=O)N[C@@H](C(=O)N[C@@H](CC)C(=O)O)c3ccc(O)cc3)cc2S(=O)(=O)N1 [odevixibat, 1,1-dioxo-3,3-dibutyl-5-phenyl-7-methylthio-8-(N-{(R)-α-[N-((S)-1-carboxypropyl)carbamoyl]-4-hydroxybenzyl}carbamoylmethoxy)-2,3,4,5-tetrahydro-1,2,5-benzothiadiazepine]
pruritus responders reporting any TEAE ([1]; 21 of 28): 75% | TEAEs leading to death or study drug discontinuation ([1]; pruritus responders): no TEAEs leading to death or study drug discontinuation were reported | Any TEAE ([1]; pruritus responders, n=28): 21 (75) n (%) | Any TEAE: Mild ([1]; pruritus responders, n=28): 10 (36) n (%) | Any TEAE: Moderate ([1]; pruritus responders, n=28): 8 (29) n (%) | Any TEAE: Severe ([1]; pruritus responders, n=28): 3 (11) n (%) | Drug-related TEAE: Abdominal pain ([1]; pruritus responders, n=28): 1 (4) n (%) | Drug-related TEAE: Abdominal pain upper ([1]; pruritus responders, n=28): 1 (4) n (%) | Drug-related TEAE: Blood triglycerides increased ([1]; pruritus responders, n=28): 1 (4) n (%) | Drug-related TEAE: Diarrhea ([1]; pruritus responders, n=28): 4 (14) n (%) | Drug-related TEAE: Feces discolored ([1]; pruritus responders, n=28): 1 (4) n (%) | Drug-related TEAE: Frequent bowel movements ([1]; pruritus responders, n=28): 1 (4) n (%) | Drug-related TEAE: Hematemesis ([1]; pruritus responders, n=28): 1 (4) n (%) | Drug-related TEAE: Hepatic enzyme increased ([1]; pruritus responders, n=28): 1 (4) n (%) | Drug-related TEAE: INR increased ([1]; pruritus responders, n=28): 1 (4) n (%) | Drug-related TEAE: Nausea ([1]; pruritus responders, n=28): 1 (4) n (%) | Drug-related TEAE: Vomiting ([1]; pruritus responders, n=28): 2 (7) n (%) | Drug-related TEAE: Weight decreased ([1]; pruritus responders, n=28): 1 (4) n (%) | Drug-related TEAEs ([1]; pruritus responders, n=28): 8 (29) n (%) | Drug-related serious TEAEs ([1]; pruritus responders, n=28): 1 (4)^a n (%) | Serious TEAEs ([1]; pruritus responders, n=28): 3 (11) n (%) | TEAEs leading to discontinuation ([1]; pruritus responders, n=28): 0 n (%) | TEAEs leading to treatment interruption ([1]; pruritus responders, n=28): 2 (7) n (%) | Bile acids, Week 24 Mean (SE) ([2]; average of weeks 20 and 24, n=28): 136 (19) μmol/L | Bile acids, Mean (SE) Change From Baseline ([2]; baseline to average of weeks 20 and 24): −107 (23) μmol/L | Bile acids, Baseline Mean (SE) ([2]; n=28): 243 µmol/L | Bile acids, Baseline Mean (SE) ([2]; n=28, listed as Odevixibat): 243 (23) μmol/L | LS mean change from baseline in scratching score (ObsRO) ([3]; baseline to Weeks 21-24, 34 patients): −1.69 points | improvement in pruritus (mean monthly ObsRO scratching score) observed as early as ([3]; onset of effect): 1 week | percentage of patients who were pruritus responders (≥1-point reduction in monthly scratching score from baseline) ([3]; week 12): 74% | percentage of patients who were pruritus responders (≥1-point reduction in monthly scratching score from baseline) ([3]; week 24 (weeks 21-24), n=35): 80% | PedsQL total score, Baseline Mean (SE) ([4]; n=24, range 0-100): 68 (3) | PedsQL total score, Mean (SE) Change From Baseline ([4]; to week 24, n=23): 16 (4)^c | PedsQL total score, Week 24 Mean (SE) ([4]; week 24, n=25): 83 (2) | patients with no change from baseline to week 24 in xanthomas ([5]; 27/35, incl. 25 patients without xanthomas at any time point): 77% | patients showing improvements in xanthomas ([5]; baseline to week 24, n=35): 20% | patients whose Clinician Xanthoma Scale score increased (from 0 to 1) ([5]; baseline to week 24, n=35): 3% | caregivers reporting meaningful change in the patient since the start of treatment (exit survey) [6]: 78%
